Target: Activated CDC42 kinase 1 (Homo sapiens, UniProt Q07912)
Sequence (Q07912 whole entry): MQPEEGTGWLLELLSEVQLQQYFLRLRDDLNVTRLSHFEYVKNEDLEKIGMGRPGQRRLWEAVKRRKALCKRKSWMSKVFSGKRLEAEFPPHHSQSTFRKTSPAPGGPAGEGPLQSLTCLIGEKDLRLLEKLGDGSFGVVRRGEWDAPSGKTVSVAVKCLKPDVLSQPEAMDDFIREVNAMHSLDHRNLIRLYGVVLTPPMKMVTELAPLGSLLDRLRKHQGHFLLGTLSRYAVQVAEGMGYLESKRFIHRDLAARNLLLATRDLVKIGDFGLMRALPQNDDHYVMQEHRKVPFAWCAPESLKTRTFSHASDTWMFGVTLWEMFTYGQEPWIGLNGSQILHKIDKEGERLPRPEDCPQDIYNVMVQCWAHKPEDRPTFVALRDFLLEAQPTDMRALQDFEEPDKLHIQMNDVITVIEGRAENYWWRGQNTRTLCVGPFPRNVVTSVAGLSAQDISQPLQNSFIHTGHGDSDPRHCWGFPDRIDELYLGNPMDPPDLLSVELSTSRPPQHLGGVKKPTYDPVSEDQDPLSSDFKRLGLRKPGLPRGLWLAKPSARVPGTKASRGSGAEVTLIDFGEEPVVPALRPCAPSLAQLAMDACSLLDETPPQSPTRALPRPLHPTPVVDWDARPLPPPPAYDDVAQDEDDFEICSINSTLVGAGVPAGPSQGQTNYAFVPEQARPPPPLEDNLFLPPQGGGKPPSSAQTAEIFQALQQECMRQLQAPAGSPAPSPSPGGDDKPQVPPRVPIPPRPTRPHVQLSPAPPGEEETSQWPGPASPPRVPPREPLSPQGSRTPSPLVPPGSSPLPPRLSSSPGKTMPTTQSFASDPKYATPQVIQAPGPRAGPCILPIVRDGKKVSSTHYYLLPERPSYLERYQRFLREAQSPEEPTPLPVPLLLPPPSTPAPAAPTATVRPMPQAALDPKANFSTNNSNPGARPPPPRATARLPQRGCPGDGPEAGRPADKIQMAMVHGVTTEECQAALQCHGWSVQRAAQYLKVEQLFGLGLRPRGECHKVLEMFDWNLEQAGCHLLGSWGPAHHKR

IC50: 26 nM
Structure (SMILES): COc1cc(N2CCN(C)CC2)ccc1Nc1ncc(Cl)c(Nc2ccc(NS(C)(=O)=O)cc2)n1 [US20240010634, Example 33]
